Measured values published in a compilation of properties of binary mixtures (doi:10.1021/acs.jpcb.9b04724).

Experiment: xn = mol fraction of the nth substance listed
Settings: 101 kPa

CC[n+]1ccn(C)c1.N#C[N-]C#N + CCCC[N+](C)(CCCC)CCCC.N#C[N-]C#N
x1 = 1
Settings	viscosity [mPa·s]
293.15 K	17.41
313.15 K	10.05
333.15 K	6.65

CCCC[N+](C)(CCCC)CCCC.N#C[N-]C#N + CC[n+]1ccn(C)c1.N#C[N-]C#N
viscosity [mPa·s]
Settings	293.15 K	303.15 K	313.15 K	323.15 K	333.15 K	343.15 K	353.15 K
x2 = 0	498	239	127.3	74.9	47.6	32	22.6
x2 = 0.2114	201	–	65.2	42.1	28.7	–	–
x2 = 0.3975	101.3	60.6	39.2	26.8	–	14.44	–
x2 = 0.6047	50.5	–	22.87	16.69	12.65	10.13	8.18
x2 = 0.8003	28.3	19.8	14.56	11.15	9.11	7.26	5.93
